Values of other authors in patent US20070213409A1, “USE OF PREPARATIONS FOR SKIN ENZYME PROTECTION” (BEIERSDORF AG, priority 2005, published 2007).
Where a name gives a salt, the structure may show the parent alone.

Columns and labels:
[1] = test system: stratum corneum chymotryptic enzyme (SCCE); conditions: competitive inhibition; associated with reduced desquamation
[2] = test system: stratum corneum tryptic enzyme (SCTE); conditions: competitive inhibition; associated with reduced desquamation
[3] = test system: desquamation (SCCE and SCTE serine proteases)

Row | Compound | effect on activity of SCCE [1] | effect on activity of SCTE [2] | skin flakes in vivo after topical application [3]
1 | CC(C)CCC[C@@H](C)[C@H]1CC[C@H]2[C@@H]3CC=C4C[C@@H](OS(=O)(=O)O)CC[C@]4(C)[C@H]3CC[C@]12C [cholesterol-3 sulfate] | reduces | reduces | 
2 | CC(=O)N[C@@H](CC(C)C)C(=O)N[C@@H](CC(C)C)C(=O)N[C@H](C=O)CCCNC(=N)N [leupeptin] |  |  | more skin flakes
3 | aprotinin |  |  | more skin flakes
